Where two headings read alike, the source gives them in different places.
Tests used:
[1] = tested on: Pa16c cells; test: Pa16c Cell Proliferation Assay; type: cell-based; conditions: Table 2, read-out: Inhibition of cell proliferation in Pa16c (IC50 class)
Method in brief: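 Proliferation read-out: resazurin fluorescence (540 nm excitation, 600 nm emission) after an extra 18 to 24 h. Before that, compound dilution series (triplicate) stayed on 750 Pa16c cells/well in complete DMEM/10% FBS for 67 to 72 h at 37° C. IC50 values derived from the curves.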

[2] = target: T1, C-Raf kinase (SEQ ID NO: 2) (Homo sapiens, UniProt P04049, Y340D/Y341D); test: Biochemical Assay for C-Raf (coupled pyruvate kinase/lactate dehydrogenase assay); conditions: 1 mM ATP; read-out: CRAF (inhibition of biochemical activity, IC50)
T1 construct: C-Raf residues 306-end; Y340D, Y341D with; GST (N); purchased Sigma
T1 sequence (P04049 307-648 Y340D/Y341D): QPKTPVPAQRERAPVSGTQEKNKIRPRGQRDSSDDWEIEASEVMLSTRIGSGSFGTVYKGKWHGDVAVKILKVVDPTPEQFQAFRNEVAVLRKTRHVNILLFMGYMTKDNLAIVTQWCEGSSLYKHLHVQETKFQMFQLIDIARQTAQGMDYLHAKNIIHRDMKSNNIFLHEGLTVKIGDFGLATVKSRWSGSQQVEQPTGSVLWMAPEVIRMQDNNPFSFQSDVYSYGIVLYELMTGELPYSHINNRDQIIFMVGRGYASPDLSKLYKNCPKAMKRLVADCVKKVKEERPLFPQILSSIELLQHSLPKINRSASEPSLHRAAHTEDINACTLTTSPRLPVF

[3] = tested on: HPAF-II cells; test: HPAF-II Cell Proliferation Assay; type: cell-based; conditions: HPAF-II cells, Table 2, read-out: Inhibition of cell proliferation in HPAF-II (IC50 class)
Method in brief: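 Viability read-out was resazurin fluorescence (540 nm excitation, 600 nm emission), developed 18–24 h after a 115–120 h compound exposure of 750 HPAF-II cells per well in MEM/10% FBS at 37 °C. Compound was tested as a serial dilution in triplicate, and IC50 values were calculated.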

[4] = tested on: HCT-116 cells; test: HCT-116 Cell Proliferation Assay; type: cell-based; conditions: Table 2, read-out: Inhibition of cell proliferation in HCT-116 (IC50 class)
Method in brief: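 IC50 values come from resazurin fluorescence (540 nm excitation, 600 nm emission) added for 4 to 5 h after compound treatment. Treatment: serially diluted compound in triplicate on 375 HCT-116 cells per well in complete McCoy's 5A/10% FBS, 67 to 72 hours, 37 °C, 5% CO2.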

[5] = tested on: MiaPaca-2 cells; test: MiaPaca-2 Cell Proliferation Assay; type: cell-based; conditions: Table 2, read-out: Inhibition of cell proliferation in MiaPaca-2 (IC50 class)
Method in brief: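 Viability was read as resazurin fluorescence (540 nm excitation, 600 nm emission) after 5–6 h with dye. Compounds were tested as serial dilutions in triplicate, with IC50 derived from the dose–response.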

[6] = target: T2, B-Raf kinase (SEQ ID NO: 1) (Homo sapiens, UniProt P15056); test: Biochemical Assay for B-Raf (coupled pyruvate kinase/lactate dehydrogenase assay); conditions: 1 mM ATP; read-out: BRAF (inhibition of biochemical activity, IC50)
T2 construct: GST (N); purchased Sigma
T2 sequence (P15056 416-766): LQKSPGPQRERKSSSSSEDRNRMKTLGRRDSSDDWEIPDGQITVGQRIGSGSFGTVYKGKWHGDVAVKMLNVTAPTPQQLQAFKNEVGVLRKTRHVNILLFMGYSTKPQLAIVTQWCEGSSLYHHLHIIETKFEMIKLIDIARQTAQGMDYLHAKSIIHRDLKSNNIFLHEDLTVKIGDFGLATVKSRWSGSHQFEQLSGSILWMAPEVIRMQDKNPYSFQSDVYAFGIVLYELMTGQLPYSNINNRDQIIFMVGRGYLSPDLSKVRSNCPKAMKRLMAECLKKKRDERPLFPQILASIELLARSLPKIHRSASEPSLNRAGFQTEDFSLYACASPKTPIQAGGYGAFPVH

[7] = Homo sapiens, HCT-116, HCT-116 cells
[8] = Homo sapiens, MIA PaCa-2, MiaPaca-2 cells

| SMILES | IC50 [1] [nM] | IC50 [2] [nM] | IC50 ([3]; Homo sapiens, HPAF-II) [nM] | IC50 [4, 7] [nM] | IC50 [5, 8] [nM] | IC50 [6] [nM] | IC50 [3] [nM] | IC50 ([4]; HCT-116 cells) [nM] | IC50 ([5]; MiaPaca-2 cells) [nM] |
| --- | --- | --- | --- | --- | --- | --- | --- | --- | --- |
| Cc1ccc(NC(=O)c2cc(C3CC3)cnn2)cc1-c1ccnc(-c2ccsc2)c1 [Example 144] | 100 to 500 | 1000 to 10000 | 100 to 500 | 100 to 500 | 100 to 500 | 1000 to 10000 | – | – | – |
| Cc1ccc(NC(=O)c2cc(Cl)cnn2)cc1-c1ccnc(-c2ccnc(NC(=O)C3CC3)c2)c1 [Example 40] | 500 to 1000 | < 100 | 500 to 1000 | 100 to 500 | 500 to 1000 | < 100 | – | – | – |
| CCn1cc(-c2cc(-c3cc(NC(=O)c4cc(C(F)(F)F)cnn4)ccc3C)ccn2)cn1 [Example 115] | 100 to 500 | 100 to 500 | 100 to 500 | 100 to 500 | 100 to 500 | 100 to 500 | – | – | – |
| Cc1ccc(NC(=O)c2cc(C(F)(F)F)cnn2)cc1-c1cccc(-c2cc(NC(=O)C3CC3)ncn2)c1 [Example 11] | 1000 to 10000 | < 100 | 500 to 1000 | 100 to 500 | 500 to 1000 | < 100 | – | – | – |
| Cc1ccc(NC(=O)c2cncc(C(C)(C)F)c2)cc1-c1cncc(-c2cc(NC(=O)C3CC3)ncn2)c1 [Example 68] | 500 to 1000 | < 100 | < 100 | < 100 | 100 to 500 | < 100 | – | – | – |
| Cc1ccc(NC(=O)c2ccc(C(F)(F)F)nc2)cc1-c1ccnc(-c2ccnc(NC(=O)C3CC3)c2)c1 [Example 79] | 100 to 500 | < 100 | – | – | – | < 100 | 100 to 500 | 100 to 500 | 100 to 500 |
| Cc1ccc(NC(=O)c2cc(C(C)(F)F)cnn2)cc1-c1cc(N[C@H](C)CO)nc(-c2cn[nH]c2)c1 [Example 121] | < 100 | < 100 | 100 to 500 | < 100 | < 100 | < 100 | – | – | – |
| Cc1ccc(NC(=O)c2cc(C(C)(F)F)cnn2)cc1-c1ccnc(-c2ccsc2)c1 [Example 148] | 100 to 500 | 500 to 1000 | 100 to 500 | < 100 | 100 to 500 | 1000 to 10000 | – | – | – |
| Cc1ccc(NC(=O)c2cc(C(F)(F)F)cnn2)cc1-c1ccnc(-c2ccnc(/N=C/N(C)C)c2)c1 [Example 37, (E)-N-(3-(2′-(((dimethylamino)methylene)amino)-[2,4′-bipyridin]-4-yl)-4-methylphenyl)-5-(trifluoromethyl)pyridazine-3-carboxamide] | < 100 | < 100 | 1000 to 10000 | 100 to 500 | < 100 | < 100 | – | – | – |
| Cc1ccc(NC(=O)c2cc3c(nn2)CCC3)cc1-c1ccnc(-c2ccnc(NC(=O)C3CC3)c2)c1 [Example 98] | 1000 to 10000 | < 100 | 1000 to 10000 | 1000 to 10000 | 1000 to 10000 | < 100 | – | – | – |
| Cc1ccc(NC(=O)c2cc(C(F)(F)F)cnn2)cc1-c1cncc(-c2cc(NC(=O)C(F)(F)F)ncn2)c1 [Example 125] | 500 to 1000 | < 100 | 500 to 1000 | 500 to 1000 | 500 to 1000 | < 100 | – | – | – |
| CC(=O)Nc1cc(-c2cc(-c3cc(NC(=O)c4cc(C(F)(F)F)cnn4)ccc3C)ccn2)ccn1 [Example 93] | 1000 to 10000 | < 100 | – | – | – | < 100 | < 100 | < 100 | 100 to 500 |
| Cc1ccc(NC(=O)c2cncc(C(C)(F)F)c2)cc1-c1ccnc(-c2ccnc(NC(=O)C3CC3)c2)c1 [Example 82] | 1000 to 10000 | < 100 | 500 to 1000 | 100 to 500 | 500 to 1000 | < 100 | – | – | – |
| Cc1ccc(NC(=O)c2cc(C(C)(F)F)cnn2)cc1-c1ccnc(-c2cnn(C)c2)c1 [Example 150] | 500 to 1000 | < 100 | 100 to 500 | 100 to 500 | 100 to 500 | 100 to 500 | – | – | – |
| Cc1ccc(NC(=O)c2cncc(C(F)(F)F)n2)cc1-c1cncc(-c2ccnc(NC(=O)C3CC3)c2)c1 [Example 5] | 1000 to 10000 | < 100 | 1000 to 10000 | 1000 to 10000 | 1000 to 10000 | < 100 | – | – | – |
| Cc1ccc(NC(=O)c2cc(C(F)(F)F)cnn2)cc1-c1ccnc(-c2ccnc(NCCO)c2)c1 [Example 129] | 100 to 500 | < 100 | < 100 | < 100 | < 100 | 100 to 500 | – | – | – |
| Cc1ccc(NC(=O)c2cc(C3CC3)cnn2)cc1-c1ccnc(-c2cnsc2)c1 [Example 136] | 100 to 500 | < 100 | 100 to 500 | 100 to 500 | 100 to 500 | 100 to 500 | – | – | – |
| CNCC(=O)Nc1cc(-c2cc(-c3cc(NC(=O)c4cc(C(C)(F)F)cnn4)ccc3C)ccn2)ccn1 [Example 112] | 100 to 500 | < 100 | 100 to 500 | 100 to 500 | 100 to 500 | < 100 | – | – | – |
| Cc1ccc(NC(=O)c2cc(C(F)(F)F)cnn2)cc1-c1ccnc(-c2ccnc(NC(=O)C3(C)CCC3)c2)c1 [Example 7] | 100 to 500 | 100 to 500 | 100 to 500 | 100 to 500 | 100 to 500 | 500 to 1000 | – | – | – |
| Cc1ccc(NC(=O)c2cc(C(C)(F)F)cnn2)cc1-c1ccnc(-c2cnsc2)c1 [Example 137] | 500 to 1000 | < 100 | 100 to 500 | 100 to 500 | 100 to 500 | 100 to 500 | – | – | – |
| Cc1ccc(NC(=O)c2cc(C(F)(F)F)cnn2)cc1-c1ccnc(-c2ccnc(NC=O)c2)c1 [Example 110] | < 100 | < 100 | < 100 | < 100 | < 100 | < 100 | – | – | – |
| Cc1ccc(NC(=O)c2cc(OC(F)F)cnn2)cc1-c1ccnc(-c2ccnc(NC(=O)C3CC3)c2)c1 [Example 134] | 100 to 500 | < 100 | 1000 to 10000 | 100 to 500 | 500 to 1000 | < 100 | – | – | – |
| Cc1cc(-c2cc(NC(=O)c3cc(C(F)(F)F)cnn3)cnc2C)cc(-c2ccnc(NC(=O)C3CC3)c2)n1 [Example 35] | 1000 to 10000 | < 100 | 1000 to 10000 | 1000 to 10000 | 1000 to 10000 | < 100 | – | – | – |
